The values below are quoted from earlier work in patent publication US20130281387A1, “Chemosensory Receptor Ligand-Based Therapies” (ELCELYX THERAPEUTICS, INC., priority 2010, published 2013).

In the first series the test system is GLP-1. Conditions: humans, after administration.
Turning to `OCCN1C[C@H](O)[C@@H](O)[C@H](O)[C@H]1CO` [miglitol], the “post-prandial GLP-1 levels” value was “increase”.

The next series deals with gut hormones. Particulars: humans, after administration.
Consider `C=C1C[C@@]23CC[C@H]4[C@@](C)(CCC[C@@]4(C)C(=O)O[C@@H]4O[C@H](CO)[C@@H](O)[C@H](O)[C@H]4O)[C@@H]2CC[C@]1(O[C@@H]1O[C@H](CO)[C@@H](O)[C@H](O[C@@H]2O[C@H](CO)[C@@H](O)[C@H](O)[C@H]2O)[C@H]1O[C@@H]1O[C@H](CO)[C@@H](O)[C@H](O)[C@H]1O)C3` [Rebaudioside A], for which the “gut hormones in the circulation” value is on record as “no alterations”.

Another series relates to bitter receptor. Particulars: bitter phytonutrients in common plant foods.
Take `COc1ccc(-c2cc(=O)c3c(OC)c(OC)c(OC)c(OC)c3o2)cc1` [Tangeretin]: the Taste quality result is given as “Bitter”.
`CC1(C)O[C@H]2CC(=O)OC[C@]23[C@H]2CC[C@@](C)([C@@H](O[C@@H]4O[C@H](CO)[C@@H](O)[C@H](O)[C@H]4O)c4ccoc4)[C@@]4(O[C@@H]4C(=O)O)[C@]2(C)C(=O)C[C@@H]13` [Limonin glucoside]: the Taste quality result is “Tasteless”.
`COc1ccc(-c2cc(=O)c3c(OC)c(OC)c(OC)c(OC)c3o2)cc1OC` [Nobiletin]: the Taste quality entry is on record as “Bitter”.
In the case of `C[S+]([O-])CCCCN=C=S` (stereo not shown) [4-Methylsulfinyl butyl isothiocyanate], the Taste quality entry is recorded as “Acrid mustard oils”.
As to `Oc1cc(O)c2c(c1)O[C@H](c1cc(O)c(O)c(O)c1)[C@H](O)C2` [Epigallocatechin], the Taste quality result was “Bitter with sweet”.
Regarding `O=C(O[C@@H]1Cc2c(O)cc(O)cc2O[C@@H]1c1ccc(O)c(O)c1)c1cc(O)c(O)c(O)c1` [Epicatechin gallate], the Taste quality entry is “Bitter and astringent”.
In the case of `C=CC1CNC(=S)O1` (stereo not shown) [Goitrin, Goitrin 5-vinyl-2-oxazolidine thione], the Taste quality result is given as “Bitter”.
Consider `CC1(C)O[C@H]2CC(=O)OC[C@]23[C@H]2CC[C@@]4(C)[C@H](c5ccoc5)OC(=O)[C@H]5O[C@]54[C@]2(C)C(=O)C[C@@H]13` [Limonin], for which the Taste quality result is on record as “Bitter”.
Regarding `C=CCN=C=S` [Allyl-isothiocyanate], the Taste quality result is reported as “Acrid mustard oils;”.
Take `O=c1c(-c2ccc(O)cc2)coc2cc(O)cc(O)c12` [Genistein]: the Taste quality result is reported as “Bitter or astringent”.
Turning to `C[C@@H]1O[C@@H](O[C@H]2[C@H](Oc3cc(O)c4c(c3)O[C@H](c3ccc(O)cc3)CC4=O)O[C@H](CO)[C@@H](O)[C@@H]2O)[C@H](O)[C@H](O)[C@H]1O` [Naringin], the Taste quality result was “Bitter”.
For the compound `C=CCC(=NOS(=O)(=O)O)S[C@@H]1O[C@H](CO)[C@@H](O)[C@H](O)[C@H]1O` (stereo in doubt) [Sinigrin], the Taste quality result is on record as “Bitter”.
Turning to `S=C=NCc1ccccc1` [Benzyl isothiocyanate], the Taste quality result is recorded as “Acrid mustard oils;”.
`O=c1c(O)c(-c2ccc(O)c(O)c2)oc2cc(O)cc(O)c12` [Quercetin]: the Taste quality result is reported as “Bitter”.
Turning to `CC(=O)O[C@H]1CC(=O)OC(C)(C)[C@@H]2CC(=O)[C@]3(C)[C@H](CC[C@@]4(C)[C@H](c5ccoc5)OC(=O)[C@H]5O[C@]543)[C@@]12C` [Nomilin], the Taste quality result was “Bitter”.
For the compound `O=S(=O)(O)ON=C(Cc1c[nH]c2ccccc12)S[C@@H]1O[C@H](CO)[C@@H](O)[C@H](O)[C@H]1O` [Glucobrassicin], the Taste quality result is “Bitter”.
In the case of `COc1ccc(-c2cc(=O)c3c(OC)c(OC)c(OC)cc3o2)cc1OC` [Sinensetin], the Taste quality result is given as “Bitter”.
Turning to `O=C(O[C@@H]1Cc2c(O)cc(O)cc2O[C@@H]1c1cc(O)c(O)c(O)c1)c1cc(O)c(O)c(O)c1` [Epigallocatechin gallate], the Taste quality result is given as “Bitter with sweet”.
As to `O=c1c(-c2ccc(O)cc2)coc2cc(O[C@@H]3O[C@H](CO)[C@@H](O)[C@H](O)[C@H]3O)cc(O)c12` [Genistin], the Taste quality entry was “Astringent”.
As for `O=c1c(-c2ccc(O)cc2)coc2cc(O[C@@H]3O[C@H](CO)[C@@H](O)[C@H](O)[C@H]3O)ccc12` [Daidzin], the Taste quality result is “Astringent”.
In the case of `C[S+]([O-])CCCN=C=S` (stereo not shown) [3-Methyl-sulfinylpropyl isothiocyanate], the Taste quality result is given as “Acrid mustard oils”.
`C=C[C@H](O)CC(=NOS(=O)(=O)O)S[C@@H]1O[C@H](CO)[C@@H](O)[C@H](O)[C@H]1O` [Progoitrin]: the Taste quality result is given as “Bitter”.
In the case of `O=c1c(-c2ccc(O)cc2)coc2cc(O)ccc12` [daidzein], the Taste quality entry was “Bitter or astringent”.
